Source: patent publication US20110105509A1 (Wyeth, LLC, priority 2009, published 2011)

Molecular target: T1, CRTH2 (Homo sapiens, UniProt Q9Y5Y4)
T1 construct: expressed in transfected cells; host or cells: CHO cells
T1 sequence (Q9Y5Y4 1-395): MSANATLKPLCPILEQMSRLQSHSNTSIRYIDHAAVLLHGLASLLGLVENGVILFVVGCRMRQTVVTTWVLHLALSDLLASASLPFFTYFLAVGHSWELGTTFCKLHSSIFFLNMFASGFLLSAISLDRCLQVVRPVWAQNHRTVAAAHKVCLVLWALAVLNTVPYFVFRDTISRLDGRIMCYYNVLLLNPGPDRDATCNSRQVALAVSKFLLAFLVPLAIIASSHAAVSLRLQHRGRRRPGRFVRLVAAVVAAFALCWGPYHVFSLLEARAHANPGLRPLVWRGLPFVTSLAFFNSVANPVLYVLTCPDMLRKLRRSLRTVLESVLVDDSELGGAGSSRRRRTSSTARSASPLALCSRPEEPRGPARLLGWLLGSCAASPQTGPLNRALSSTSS
Experiment: FRET based competitive immunoassay (cAMP) in CRTH2 expressing CHO cells
Type: cell-based
Details: CRTH2 expressing CHO cells incubated with forskolin and PGD2; Eu3+ cryptate-labeled anti-cAMP and d2-labeled cAMP
Description: FRET Assay: To evaluate potency compounds were tested in a FRET based competitive immunoassay in which CRTH2 expressing CHO cells were incubated in the presence of forskolin and PGD2 along with Eu3+ cryptate-labeled anti-cAMP and d2-labeled cAMP.

IC50 [nM]	SMILES
> 1000	Cc1c(Cc2ccc(=O)n(Cc3ccc(F)cc3F)n2)c2cc(F)ccc2n1CC(=O)NS(C)(=O)=O [Example 320, 2-(3-((1-(2,4-difluorobenzyl)-6-oxo-1,6-dihydropyridazin-3-yl)methyl)-5-fluoro-2-methyl-1H-indol-1-yl)-N-(methylsulfonyl)acetamide]
> 1000	Cc1c(Cc2ccc(=O)n(Cc3ccc(F)c(F)c3)c2)c2cc(F)ccc2n1CC(=O)NS(C)(=O)=O [Example 321, 2-(3-((1-(3,4-difluorobenzyl)-6-oxo-1,6-dihydropyridin-3-yl)methyl)-5-fluoro-2-methyl-1H-indol-1-yl)-N-(methylsulfonyl)acetamide]
> 1000	Cc1c(-c2nn(CCOc3ccccc3)c(=O)c3ccccc23)c2cc(Cl)ccc2n1CC(=O)NS(C)(=O)=O [Example 322, 2-(5-Chloro-2-methyl-3-(4-oxo-3-(2-phenoxyethyl)-3,4-dihydrophthalazin-1-yl)-1H-indol-1-yl)-N-(methylsulfonyl)acetamide]
518	Cc1c(-c2cn(Cc3ccccc3)c(=O)c3ccccc23)c2cc(F)ccc2n1CC(=O)NS(C)(=O)=O [Example 323, 2-(3-(2-benzyl-1-oxo-1,2-dihydroisoquinolin-4-yl)-5-fluoro-2-methyl-1H-indol-1-yl)-N-(methylsulfonyl)acetamide]
6	Cc1c(-c2ccc(=O)n(Cc3ccccc3)n2)c2cc(F)ccc2n1CC(=O)O [Example 324, 2-(3-(1-benzyl-6-oxo-1,6-dihydropyridazin-3-yl)-5-fluoro-2-methyl-1H-indol-1-yl)-acetic acid]
61	Cc1c(-c2nn(C(C)C)c(=O)c3ccccc23)c2ccccc2n1CC(=O)O [Example 326, [3-(3-isopropyl-4-oxo-3,4-dihydrophthalazin-1-yl)-2-methyl-1H-indol-1-yl]acetic acid]
13	Cc1c(-c2nn(CC(C)C)c(=O)c3ccccc23)c2cc(F)ccc2n1CC(=O)O [Example 327, {5-fluoro-2-methyl-3-[3-(2-methylpropyl)-4-oxo-3,4-dihydrophthalazin-1-yl]-1H-indol-1-yl}acetic acid]
12	Cc1c(-c2nn(Cc3ccccc3)c(=O)c3ccccc23)c2cc(F)ccc2n1CC(=O)O [Example 328, [3-(3-benzyl-4-oxo-3,4-dihydrophthalazin-1-yl)-5-fluoro-2-methyl-1H-indol-1-yl]-acetic acid]
3	Cc1c(-c2nn(Cc3cccc(F)c3)c(=O)c3ccccc23)c2cc(F)ccc2n1CC(=O)O [Example 329, {5-fluoro-3-[3-(3-fluorobenzyl)-4-oxo-3,4-dihydrophthalazin-1-yl]-2-methyl-1H-indol-1-yl}acetic acid]
15	Cc1c(-c2nn(C(C)C)c(=O)c3ccccc23)c2cc(F)ccc2n1CC(=O)O [Example 330, {5-fluoro-2-methyl-3-[3-(1-methylethyl)-4-oxo-3,4-dihydrophthalazin-1-yl]-1H-indol-1-yl}acetic acid]
3	Cc1c(-c2nn(Cc3ccc(Cl)cc3Cl)c(=O)c3ccccc23)c2cc(Cl)ccc2n1CC(=O)O [Example 331, {5-chloro-3-[3-(2,4-dichlorobenzyl)-4-oxo-3,4-dihydrophthalazin-1-yl]-2-methyl-1H-indol-1-yl}acetic acid]
26	Cc1c(-c2nn(Cc3ccc(S(C)(=O)=O)cc3)c(=O)c3ccccc23)c2cc(Cl)ccc2n1CC(=O)O [Example 332, (5-chloro-2-methyl-3-{3-[4-(methylsulfonyl)benzyl]-4-oxo-3,4-dihydro-phthalazin-1-yl}-1H-indol-1-yl)acetic acid]
111	Cc1c(-c2ccc(=O)n(CC(C)C)n2)c2cc(F)ccc2n1CC(=O)O [Example 333, 2-(5-fluoro-3-(1-isobutyl-6-oxo-1,6-dihydropyridazin-3-yl)-2-methyl-1H-indol-1-yl)acetic acid]
210	Cc1c(-c2ccc(=O)n(C(C)C)n2)c2cc(F)ccc2n1CC(=O)O [Example 334, [5-fluoro-3-(1-isopropyl-6-oxo-1,6-dihydropyridazin-3-yl)-2-methyl-1H-indol-1-yl]-acetic acid]
5	Cc1c(Cc2ccc(=O)n(Cc3cc(F)ccc3F)n2)c2cc(F)ccc2n1CC(=O)O [Example 336, (3-{[1-(2,5-difluorobenzyl)-6-oxo-1,6-dihydropyridazin-3-yl]methyl}-5-fluoro-2-methyl-1H-indol-1-yl)acetic acid]
10	Cc1c(Cc2ccc(=O)n(Cc3ccccc3)n2)c2cc(F)ccc2n1CC(=O)O [Example 337, {3-[(1-benzyl-6-oxo-1,6-dihydropyridazin-3-yl)methyl]-5-fluoro-2-methyl-1H-indol-1-yl}acetic acid]
5	Cc1c(Cc2ccc(=O)n(Cc3c(F)cccc3F)n2)c2cc(F)ccc2n1CC(=O)O [Example 338, (3-{[1-(2,6-difluorobenzyl)-6-oxo-1,6-dihydropyridazin-3-yl]methyl}-5-fluoro-2-methyl-1H-indol-1-yl)acetic acid]
4	Cc1c(Cc2ccc(=O)n(Cc3cccc(F)c3F)n2)c2cc(F)ccc2n1CC(=O)O [Example 339, (3-{[1-(2,3-difluorobenzyl)-6-oxo-1,6-dihydropyridazin-3-yl]methyl}-5-fluoro-2-methyl-1H-indol-1-yl)acetic acid]
3	Cc1c(Cc2ccc(=O)n(Cc3ccccc3F)n2)c2cc(F)ccc2n1CC(=O)O [Example 340, (3-{[1-(2-fluorobenzyl)-6-oxo-1,6-dihydropyridazin-3-yl]methyl}-5-fluoro-2-methyl-1H-indol-1-yl)acetic acid]
33	Cc1c(Cc2ccc(=O)n(Cc3cccc(F)c3)n2)c2cc(F)ccc2n1CC(=O)O [Example 341, (3-{[1-(3-fluorobenzyl)-6-oxo-1,6-dihydropyridazin-3-yl]methyl}-5-fluoro-2-methyl-1H-indol-1-yl)acetic acid]
13	Cc1c(Cc2ccc(=O)n(Cc3ccc(F)cc3)n2)c2cc(F)ccc2n1CC(=O)O [Example 342, (3-{[1-(4-fluorobenzyl)-6-oxo-1,6-dihydropyridazin-3-yl]methyl}-5-fluoro-2-methyl-1H-indol-1-yl)acetic acid]
142	Cc1c(Cc2ccc(=O)n(CC(C)(C)C)n2)c2cc(F)ccc2n1CC(=O)O [Example 343, (3-{[1-(2,2-dimethylpropyl)-6-oxo-1,6-dihydropyridazin-3-yl]methyl}-5-fluoro-2-methyl-1H-indol-1-yl)acetic acid]
17	Cc1c(Cc2ccc(=O)n(CCCC(F)(F)F)n2)c2cc(F)ccc2n1CC(=O)O [Example 344, 2-(5-fluoro-2-methyl-3-((6-oxo-1-(4,4,4-trifluorobutyl)-1,6-dihydropyridazin-3-yl)-methyl)-1H-indol-1-yl)acetic acid]
31	Cc1c(Cc2ccc(=O)n(CC(F)(F)F)n2)c2cc(F)ccc2n1CC(=O)O [Example 345, (5-fluoro-2-methyl-3-{[6-oxo-1-(2,2,2-trifluoroethyl)-1,6-dihydropyridazin-3-yl]-methyl}-1H-indol-1-yl)acetic acid]
11	Cc1c(Cc2ccc(=O)n(Cc3ccccc3)c2)c2cc(F)ccc2n1CC(=O)O [Example 346, {3-[(1-benzyl-6-oxo-1,6-dihydropyridin-3-yl)methyl]-5-fluoro-2-methyl-1H-indol-1-yl}acetic acid]
11	Cc1c(Cc2ccc(=O)n(Cc3ccccc3)c2)c2cc(Cl)ccc2n1CC(=O)O [Example 347, {3-[(1-benzyl-6-oxo-1,6-dihydropyridin-3-yl)methyl]-5-chloro-2-methyl-1H-indol-1-yl}acetic acid]
82	Cc1c(Cc2ccc(=O)n(Cc3ccccc3)c2)c2ccccc2n1CC(=O)O [Example 348, {3-[(1-benzyl-6-oxo-1,6-dihydropyridin-3-yl)methyl]-2-methyl-1H-indol-1-yl}acetic acid]
